Experimental data taken from paper PMC6506541, “A Bio-inspired Hypoxia Sensor using HIF1a-Oxygen-Dependent Degradation Domain” (Scientific Reports, 2019).

Tests used:
Assay type in all cases: cell-based, Human
MDA-MB 231 cells = assay: Sensor stabilization by hypoxia-mimetic agents, fluorescence microscopy; conditions: sensor 500 ng/mL, CoCl2 500 μM or L-Mimosine 800 μM vs vehicle, 3 h incubation, wash, further 3 h
Method: (§1) Human breast cancer cells MDA-MB 231 were maintained at 37 °C and 5% CO2 in RPMI-1640 (Sigma–Aldrich), supplemented with 10% fetal bovine serum (Fisher Scientific). Cells were seeded at a density of 2·10^5 cells per well in 6-multiwell plates 24 h prior treatment. For hypoxia induction, they were treated with either CoCl2 (Sigma–Aldrich) at a final concentration of 500 μM, or L-Mimosine (Sigma–Aldrich) at a final concentration of 800 μM. Treatment with each peptidic sensor (500 ng/mL) was carried out in the presence of the aforementioned inhibitors. After three hours of incubation, supernatants containing the probes and either CoCl2 or L-Mimosine were aspirated, cells were washed once with PBS 1X and fresh medium, containing again either CoCl2 or L-Mimosine, was added to the cells for an extended incubation of three hours. Treatment with proteasome inhibitor MG-132 (Sigma-Aldrich) was carried out for 6 hours at final concentrations of either 20 μM or 40 μM, upon pre-treatment of the cells with the probes, as described previously. Fluorescent probes internalization was quantified using ImageJ (NIH). Quantified fluorescence was expressed as values of corrected total cell fluorescence (CTCF), which was calculated using the formula CTCF = integrated density – (area of selected cell × mean fluorescence of background readings)[44].

HA-tagged ubiquitin = assay: Immunoprecipitation of HA-tagged ubiquitinated sensor; conditions: MDA-MB 231 cells transfected with pcDNA3-Ub-HA; 5 h with sensor; anti-HA immunoprecipitation; IVIS fluorescence
Method: MDA-MB 231 cells were seeded at a density of 2·10^5 cells per well in 6-multiwell plates twenty-four hours prior transfection. Each well was transfected with 2 μg of either pcDNA3-Ub-HA or empty vector pcDNA3 (Invitrogen) using Superfect (Qiagen) as transfection reagent. Twenty-four hours upon transfection culture medium was removed, cells were washed carefully with phosphate buffered saline (PBS; Sigma-Aldrich) and fresh culture medium containing the peptidic sensor 1 was added onto the cells. PBS was used as mock treatment. Five hours upon treatment with the sensor, cells were lysed in native immunoprecipitation buffer, 20 mM Tris·HCl pH 8, 137 mM NaCl,10% glycerol,1% Nonidet P-40 (NP-40), 2 mM EDTA, containing the protease inhibitors sodium orthovanadate (1 mM), PMSF (2 mM) and aprotinin (1 μg/mL) (Sigma-Aldrich). Each immunoprecipitation contained 600 μg of whole protein extract and were incubated overnight with 5 μg of anti-hemagglutinin HA.11 (Clone 16B12) antibody (Abcam) at 4 °C. Equal amounts of rabbit immunoglobulins (Sigma-Aldrich) were used as control. HA-tagged ubiquitins were immunoprecipitated using Protein G-coupled agarose (Santa Cruz), subsequently washed with immunoprecipitation buffer and eluted under native conditions. Fluorescence images were taken using an IVIS Spectrum system (Perkin-Elmer).

proteasome = assay: Sensor degradation under proteasome inhibitor MG-132; conditions: MDA-MB 231 cells; MG-132 20 μM or 40 μM, 6 h, after pre-treatment with probe
Method: as §1

Q: Which results are given for “LDLEMLAPYIPMDDDFQL [compound 1, 5(6)-ROX-labelled HIF-1α ODD domain peptide (Leu557-Leu574) linked to octa-arginine by O2Oc PEG linkers]”?
A: stabilization of sensor fluorescence (inhibition of sensor degradation) by hypoxia mimetics (MDA-MB 231 cells): stabilized in the presence of both molecules that mimic hypoxia; ubiquitination of sensor (enrichment by HA immunoprecipitation) (HA-tagged ubiquitin): degradation of the sensor is ubiquitin proteasome-regulated; effect of proteasome inhibitor MG-132 on degradation of sensor fluorescent signal (proteasome): dose-dependent effect on proteasome degradation of fluorescent signal
